The values below are quoted from earlier work in patent publication US20110135768A1, “DIHYDRO-ISOALPHA ACID AND ACACIA NILOTICA EXTRACT BASED COMPOSITIONS AND METHODS FOR WEIGHT MANAGEMENT” (Metaproteomics, LLC, priority 2009, published 2011).

Ends that are not written are not given here.

For this series the following is noted: rats, intra-cerebroventricular administration.

For “GLP-1: glucagon-like peptide-1, a 30 amino acid peptide derived from proglucagon gene (HAEGTFTSDVSSYLEGQAAKEFIAWLVKGR; ends and bridges not checked; UniProt P01275 98-127, looked up)”, the body weight entry is on record as “reduce” and the eating entry is recorded as “inhibit”.
